Results: patent US20180371272A1, “AQUEOUS INK, INK CARTRIDGE AND IMAGE RECORDING METHOD” (CANON KABUSHIKI KAISHA, priority 2017, published 2018)
Read-outs that look alike come from different tables or passages of the source.

Columns and labels:
Type in all cases: physicochemical
[1] = Surface tension of solvent A at 20° C.
Description: (§1) The present invention will be described in detail hereinafter by mentioning preferable embodiments. When a compound is a salt in the present invention, the salt exists while dissociating into ions in an ink, but this is expressed as “containing a salt” for convenience. An aqueous inkjet ink may be described as just an “ink.” The physical property values are values at 20° C. unless otherwise specified.
(§2) The vapor pressure of the solvent A at 20° C. is 0.5 mmHg or less, and the surface tension at 20° C. is 30 mN/m or more. When the vapor pressure is more than 0.5 mmHg, oil films formed on ejection ports evaporate, and the effect of suppressing water evaporation becomes weak. When the surface tension is less than 30 mN/m, the intermolecular force is weak. Therefore, oil films cannot be formed. The vapor pressure of the solvent A at 20° C. can be 0.2 mmHg or less. The surface tension of the solvent A at 20° C. can be 36 mN/m or more. Specific examples of the solvent A are illustrated in Table 1.

[2] = Log partition coefficient of solvent A
[3] = Water solubility of solvent A at 20° C.; details: for Water solubility (% by mass): 20° C.
Description: When a compound is a salt in the present invention, the salt exists while dissociating into ions in an ink, but this is expressed as “containing a salt” for convenience. An aqueous inkjet ink may be described as just an “ink.” The physical property values are values at 20° C. unless otherwise specified.
This solvent A is a so-called poorly water-soluble compound (poorly water-soluble solvent), which is poorly dissolved in water. […] When water in the ink evaporates and the concentration increases, the solvent A cannot be completely dissolved in the ink to separate from the ink. Because the tips of non-printing nozzles are exposed to the atmosphere, water in the ink volatilizes particularly easily.

[4] = Vapor pressure of solvent A at 20° C.
Description: as §1, §2

SMILES | Surface tension (mN/m) [1] [mN/m] | Log partition coefficient [2] | Water solubility (% by mass) [3] [% by mass] | Vapor pressure (mmHg) [4] [mmHg] | water solubility of the solvent A in the prepared ink ([3]; solvent A of ink 1) [%] | Vapor pressure (mmHg) ([4]; 20° C.)
CC(O)COc1ccccc1 (stereo not shown) [1-Phenoxy-2-propanol] | 37.7 | 1.51 | 1.1 | 0 | – | –
OCCCCc1ccccc1 [4-Phenyl-1-butanol] | 38.3 | 2.4 | 0.1 | 0 | – | –
OCCCc1ccccc1 [3-Phenyl-1-propanol] | 38.9 | 1.88 | 0.568 | 0 | – | –
OCCOc1ccccc1 [2-Phenoxyethanol] | 40 | 1.16 | 2.67 | 0 | 2.7 | –
OCc1ccccc1 [Benzyl alcohol] | 39 | 1.03 | 4.29 | 0.1 | – | –
OCCc1ccccc1 [Phenethyl alcohol] | 39.7 | – | 2.2 | 0.1 | – | –
CC(O)Cc1ccccc1 (stereo not shown) [1-Phenyl-2-propanol] | 37.3 | 1.71 | 0.58 | – | – | 0.1
